Experimental data from publication PMC7129073 (Clinical Microbiology and Infection, 2015).
≈ marks a conversion by molar mass, not a printed value.

Tests used:
[1] = tested on: P. aeruginosa; experiment: Sensitivity of CAP pathogens with/without antibiotic pretreatment; assay type: cell-based, Pseudomonas aeruginosa; settings: Abs. 3
[2] = tested on: Total pathogens in community acquired pneumonia; experiment: as above; assay type: cell-based; settings: after pretreatment, Abs. 48
[3] = tested on: Enterococcus sp; experiment: as above; assay type: cell-based
[4] = tested on: Other Enterobacteriacae; experiment: as above; assay type: cell-based, Enterobacteriaceae
[5] = tested on: Other non-fermenting bacteria; experiment: as above; assay type: cell-based
[6] = tested on: S. pyogenes; experiment: as above; assay type: cell-based, Streptococcus pyogenes; settings: Abs. 4
[7] = tested on: S. aureus; experiment: as above; assay type: cell-based, Staphylococcus aureus; settings: after pretreatment, Abs. 4
[8] = tested on: Moraxella catarrhalis (MC); experiment: MIC; assay type: cell-based; settings: 2497 isolates
[9] = tested on: E. coli; experiment: Sensitivity of CAP pathogens with/without antibiotic pretreatment; assay type: cell-based, Escherichia coli
[10] = tested on: N.gonorrhoeae; experiment: microbe, parasite or virus in culture; assay type: cell-based; settings: Neisseria gonorrhoeae
[11] = tested on: Streptococcus pyogenes (SPY); experiment: MIC; assay type: cell-based; settings: 2522 isolates
[12] = tested on: S. pneumoniae; experiment: E-test MIC, children with URTI, Brazil; assay type: cell-based, Streptococcus pneumoniae
[13] = tested on: Other Haemophilus sp.; experiment: Sensitivity of CAP pathogens with/without antibiotic pretreatment; assay type: cell-based; settings: after pretreatment, Abs. 11
[14] = tested on: S. pneumoniae; experiment: Broth microdilution; assay type: cell-based, Streptococcus pneumoniae
[15] = tested on: P. jirovecii; experiment: P. jirovecii colonisation; assay type: in vivo, human; settings: none developed PcP in one year
[16] = tested on: H. influenzae; experiment: Sensitivity of CAP pathogens with/without antibiotic pretreatment; assay type: cell-based, Haemophilus influenzae
[17] = tested on: PRSP; experiment: Broth microdilution; assay type: cell-based, Streptococcus pneumoniae
[18] = tested on: H.influenzae; experiment: Broth microdilution; assay type: cell-based, Haemophilus influenzae
[19] = tested on: S. -pneumoniae; experiment: Sensitivity of CAP pathogens with/without antibiotic pretreatment; assay type: cell-based, Streptococcus pneumoniae
[20] = tested on: Kl. pneumoniae; experiment: as above; assay type: cell-based, Klebsiella pneumoniae
[21] = tested on: Staph. coaq (−); experiment: as above; assay type: cell-based, coagulase-negative Staphylococcus
[22] = tested on: pathogens in community acquired pneumonia of different severity; experiment: Sensitivity of CAP pathogens by Fine severity group; assay type: cell-based
[23] = tested on: ERSP; experiment: Broth microdilution; assay type: cell-based, Streptococcus pneumoniae
[24] = NCCLS breakpoints (Amox/Clav 2/1 mcg/mL)

Which results are given for `CC[C@H]1OC(=O)[C@H](C)[C@@H](O[C@H]2C[C@@](C)(OC)[C@@H](O)[C@H](C)O2)[C@H](C)[C@@H](O[C@@H]2O[C@H](C)C[C@H](N(C)C)[C@H]2O)[C@](C)(O)C[C@@H](C)CN(C)[C@H](C)[C@@H](O)[C@]1(C)O` [azithromycin]?
% of sensitive strains ([1]; after pretreatment): 0.0%; % of sensitive strains ([1]; without pretreatment): 0,0%; % of sensitive strains [2]: 66.7%; % of sensitive strains ([3]; after pretreatment, Abs. 0): 0.0%; % of sensitive strains ([3]; without pretreatment, Abs. 1): 0,0%; % of sensitive strains ([4]; after pretreatment, Abs. 5): 0.0%; % of sensitive strains ([4]; without pretreatment, Abs. 2): 0,0%; % of sensitive strains ([5]; after pretreatment, Abs. 0): 0.0%; % of sensitive strains ([5]; without pretreatment, Abs. 1): 0,0%; % of sensitive strains ([6]; after pretreatment): 100.0%; % of sensitive strains ([6]; without pretreatment): 100,0%; % of sensitive strains [7]: 75.0%; MIC90 [8]: 0.25 ig/ml; % of sensitive strains ([9]; after pretreatment, Abs. 1): 0.0%; % of sensitive strains ([9]; without pretreatment, Abs. 5): 0,0%; MIC ([10]; strain 76mu6): 0.25 µg/mL (≈ 0.334 µM); MIC ([10]; strain 76mu10): 0.25 µg/mL (≈ 0.334 µM); MIC90 [11]: 0.5 ig/ml; intermediate (I) ([12]; 137 isolates): 1.5%; resistant (R) ([12]; 137 isolates): 8%; susceptible (S) ([12]; 137 isolates): 90.5%; MIC90 ([12]; Streptococcus pneumoniae): 4 µg/mL (≈ 5.34 µM); % of sensitive strains [13]: 100.0%; %Sus [14, 24]: 71.4%; MIC90 ([14]; Streptococcus pneumoniae): > 32 µg/mL; patients receiving prophylaxis who were colonized [15]: 17.2%; % of sensitive strains ([16]; after pretreatment, Abs. 10): 100.0%; % of sensitive strains ([16]; without pretreatment, Abs. 26): 100.0%; %Sus [17, 24]: 23.0%; MIC90 ([17]; Streptococcus pneumoniae, PRSP): > 32 µg/mL; MIC90 ([18]; Haemophilus influenzae): 2 µg/mL (≈ 2.67 µM); %Sus ([18]; NCCLS): 99.1%; % of sensitive strains ([19]; after antibiotic pretreatment, Abs. 3): 100.0%; % of sensitive strains ([19]; without antibiotic pretreatment, Abs. 13): 100,0%; % of sensitive strains ([20]; after pretreatment, Abs. 5): 0.0%; % of sensitive strains ([20]; without pretreatment, Abs. 4): 0,0%; % of sensitive strains ([21]; after pretreatment, Abs. 2): 50.0%; % of sensitive strains ([21]; without pretreatment, Abs. 4): 75.0%; sensitivity, total strains ([22]; higher severity group (Fine scores >70)): 60.0%; sensitivity, total strains ([22]; lower severity group (Fine scores <70)): 73.6%; %Sus [23, 24]: 0.3%; MIC90 ([23]; Streptococcus pneumoniae): > 32 µg/mL
